Bounds are passed on as bounds.

Among the data in patent US9840498B2, “Substituted quinazolin-4-one derivatives” (NOVARTIS AG, priority 2013, dated 2017) are IC50 values, retold here.

This assay deals with human phosphoinositide-3 kinase (PI3K) delta (Homo sapiens (Human), UniProt O00329). Nature of the assay: PI3K-mediated Akt 1/2 (S473) phosphorylation in Rat-1 cells overexpressing PI3K delta. Type of assay: cell-based. The settings on record: cellular assay, p-AKT(Ser473), read-out: Cell PI3K delta IC50. How it is done: 2.1 Phosphoinositide-3 kinase (PI3K)-Mediated Akt 1/2 (S473) Phosphorylation in Rat-1 Cells
human phosphoinositide-3 kinase (PI3K) delta, sequence (O00329 whole entry): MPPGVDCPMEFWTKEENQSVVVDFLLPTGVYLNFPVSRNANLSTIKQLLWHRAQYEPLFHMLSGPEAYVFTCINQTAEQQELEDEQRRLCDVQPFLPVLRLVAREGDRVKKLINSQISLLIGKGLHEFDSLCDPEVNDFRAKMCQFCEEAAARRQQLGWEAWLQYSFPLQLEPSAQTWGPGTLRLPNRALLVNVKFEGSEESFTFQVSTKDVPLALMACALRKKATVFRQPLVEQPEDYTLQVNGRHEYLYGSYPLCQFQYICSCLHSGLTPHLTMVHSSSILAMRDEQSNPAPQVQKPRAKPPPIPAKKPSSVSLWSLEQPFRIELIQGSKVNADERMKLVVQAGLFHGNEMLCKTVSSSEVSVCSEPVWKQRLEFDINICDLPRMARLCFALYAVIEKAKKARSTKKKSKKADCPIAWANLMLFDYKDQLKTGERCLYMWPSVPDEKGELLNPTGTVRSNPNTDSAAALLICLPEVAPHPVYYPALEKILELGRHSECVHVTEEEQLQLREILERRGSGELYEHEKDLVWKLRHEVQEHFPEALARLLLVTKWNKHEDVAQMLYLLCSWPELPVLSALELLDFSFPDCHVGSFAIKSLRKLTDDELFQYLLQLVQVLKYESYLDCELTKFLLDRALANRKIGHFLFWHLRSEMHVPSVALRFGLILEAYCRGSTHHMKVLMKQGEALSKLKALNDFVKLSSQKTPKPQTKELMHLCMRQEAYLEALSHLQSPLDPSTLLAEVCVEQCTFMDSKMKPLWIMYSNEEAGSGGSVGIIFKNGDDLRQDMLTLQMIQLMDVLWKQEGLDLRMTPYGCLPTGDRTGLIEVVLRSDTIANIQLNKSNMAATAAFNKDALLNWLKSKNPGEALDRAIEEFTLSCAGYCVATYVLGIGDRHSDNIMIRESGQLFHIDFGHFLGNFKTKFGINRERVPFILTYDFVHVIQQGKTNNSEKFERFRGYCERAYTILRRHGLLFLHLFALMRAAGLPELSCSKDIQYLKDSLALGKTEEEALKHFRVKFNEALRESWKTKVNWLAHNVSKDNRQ
human phosphoinositide-3 kinase (PI3K) delta, sequence (Q63787 whole entry partner): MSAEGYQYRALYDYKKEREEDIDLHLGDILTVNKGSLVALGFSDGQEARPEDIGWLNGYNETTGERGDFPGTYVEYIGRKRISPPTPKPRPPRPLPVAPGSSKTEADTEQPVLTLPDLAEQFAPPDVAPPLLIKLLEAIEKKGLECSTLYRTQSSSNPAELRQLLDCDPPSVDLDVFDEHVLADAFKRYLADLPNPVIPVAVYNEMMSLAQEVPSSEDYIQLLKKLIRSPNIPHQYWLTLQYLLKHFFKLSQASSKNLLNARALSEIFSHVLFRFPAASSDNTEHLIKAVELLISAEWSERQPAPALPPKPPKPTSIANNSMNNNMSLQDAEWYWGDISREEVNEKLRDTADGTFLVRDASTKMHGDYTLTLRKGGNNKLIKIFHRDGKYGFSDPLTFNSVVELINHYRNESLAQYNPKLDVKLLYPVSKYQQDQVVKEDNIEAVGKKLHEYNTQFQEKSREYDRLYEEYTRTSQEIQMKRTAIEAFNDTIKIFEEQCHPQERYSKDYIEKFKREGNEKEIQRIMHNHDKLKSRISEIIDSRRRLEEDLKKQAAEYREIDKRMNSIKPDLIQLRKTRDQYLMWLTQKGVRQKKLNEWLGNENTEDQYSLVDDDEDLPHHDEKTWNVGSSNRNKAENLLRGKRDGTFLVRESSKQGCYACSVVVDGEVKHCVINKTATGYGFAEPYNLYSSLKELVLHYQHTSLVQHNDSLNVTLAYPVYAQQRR
Rat-1 cells stably overexpressing a myristoylated form of the catalytic subunit of human phosphoinositide-3 kinase (PI3K) alpha, beta or delta were plated in 384-well plates at a density of 7500 (PI3K alpha), 6200 (PI3K beta), or 4000 (PI3K delta) cells in 30 ul complete growth medium (Dulbecco's modified Eagle's medium (DMEM high glucose) supplemented with 10% (v/v) fetal bovine serum, 1% (v/v) MEM non essential amino acids, 10 mM HEPES, 2 mM L-glutamine, 10 μg/mL puromycin and 1% (v/v) Penicillin/Streptomycin) and were incubated at […]/5% CO2/95% humidity for 24 h. Compounds were diluted in 384-well compound plates (compound master plates), to obtain 8-point serial dilutions for 40 test compounds in 90% DMSO, as well as 4 reference compounds plus 16 high controls and 16 low (inhibited) controls. Predilution plates were prepared by dispensing pipetting 250 nl of compound solutions into 384-well polypropylen plates (daugther plates), using a Hummingwell nanoliter dispenser. Compounds were prediluted by the addition of 49.75 ul complete growth medium. 10 ul of prediluted compound solution were transferred to the cell plate using a 384-well pipettor, resulting in a final DMSO concentration of 0.11%. Cells were incubated for 1 h at […]/5% CO2/95% humidity. The supernatant was removed, the cells were lysed in 20 ul of lysis buffer for AlphaScreen® SureFire® detection.
For detection of p-AKT(Ser473), the SureFire® p-Akt 1/2 (Ser473) Assay Kit (PerkinElmer, U.S.A.) was used. 5 ul of cell lysate was transferred to 384-well low volume Proxiplates for detection using a 384-well pipettor. Addition of AlphaScreen® SureFire® reagents was done according to the manufacturer's protocol. First, 5 ul of reaction buffer plus activation buffer mix containing AlphaScreen® acceptor beads was added, the plate was sealed, and incubated on a plate shaker for 2 hours at room temperature. Second, 2 ul of dilution buffer containing AlphaScreen® donor beads was added, and the plate was incubated on plate shaker as above for a further 2 hours. The plate was read on an AlphaScreen® compatible plate reader, using standard AlphaScreen® settings. Alternatively, p-AKT(Ser473) was detected with the CisBio HTRF Assay Kit: As positive control, 0.9 mM of 1-(3-(trifluoromethyl)-4-(piperazin-1-yl)phenyl)-8-(6-methoxypyridin-3-yl)-3-methyl-1H-imidazo[4,5-c]quinolin-2(3H)-one maleic acid salt in 90% (v/v) DMSO was added to the compound master plate. For compound testing, the cells were seeded at a density of 4000 (Rat-1_PI3Kdelta), 8000 (Rat-1_PI3Kalpha), or 6500 (Rat-1_PI3Kbeta) cells in 30 ul complete growth medium into 384-well plates, with a plastic surface promoting the adhesion of cells and their growth (assay plates) and were grown at 37° C./5% CO2/90% humidity for 24 h. Some 10 ul of the compound predilutions from the daughter plate were then transferred to the cells. After treatment with compound for 1 h, medium was removed and cells were lysed by the addition of 20 ul lysis buffer supplemented with blocking buffer. Detection of p-AKT(Ser473) was performed with the HTRF pAKT (Ser473) assay kit according to the manufacturer's instructions using 16 ul of cell lysate in a total detection volume of 20 ul.
With `Cc1nc(N)nc(N2CCC[C@H]2c2nc3cccc(-c4cncnc4)c3c(=O)n2-c2ccccc2)c1C#N` [Example 17, (S)-2-Amino-4-methyl-6-(2-(4-oxo-3-phenyl-5-(pyrimidin-5-yl)-3,4-dihydroquinazolin-2-yl)pyrrolidin-1-yl)pyrimidine-5-carbonitrile], the IC50 is less than 3 nM.

As for `CCOc1ncc(-c2cccc3nc([C@@H]4CCCN4c4nc(N)nc(C)c4C#N)n(-c4ccccc4)c(=O)c23)cn1` [Example 32, (S)-2-Amino-4-(2-(5-(2-ethoxypyrimidin-5-yl)-4-oxo-3-phenyl-3,4-dihydroquinazolin-2-yl)pyrrolidin-1-yl)-6-methylpyrimidine-5-carbonitrile], the IC50 was less than 3 nM.

For `Cc1nc(N)nc(N2C[C@@H](O)C[C@H]2c2nc3ccc(F)c(-c4cn(C)cn4)c3c(=O)n2-c2ccccc2)c1C#N` [Example 31, 2-Amino-4-((2S,4S)-2-(6-fluoro-5-(1-methyl-1H-imidazol-4-yl)-4-oxo-3-phenyl-3,4-dihydroquinazolin-2-yl)-4-hydroxypyrrolidin-1-yl)-6-methylpyrimidine-5-carbonitrile], the IC50 stood at 120 nM.

For the compound `COc1ncc(-c2c(F)ccc3nc([C@@H]4C[C@H](O)CN4c4nc(N)nc(C)c4C#N)n(-c4ccccc4)c(=O)c23)cn1` [Example 7, 2-Amino-4-((2S,4S)-2-(6-fluoro-5-(2-methoxypyrimidin-5-yl)-4-oxo-3-phenyl-3,4-dihydroquinazolin-2-yl)-4-hydroxypyrrolidin-1-yl)-6-methylpyrimidine-5-carbonitrile], the IC50 amounted to 9 nM.

Turning to `COc1ccc(-c2cccc3nc([C@@H]4CCCN4c4nc(N)nc(C)c4C#N)n(-c4ccccc4)c(=O)c23)cn1` [Example 21, (S)-2-Amino-4-(2-(5-(6-methoxypyridin-3-yl)-4-oxo-3-phenyl-3,4-dihydroquinazolin-2-yl)pyrrolidin-1-yl)-6-methylpyrimidine-5-carbonitrile], the IC50 is 13 nM.

`COc1ncc(-c2cccc3nc([C@@H]4C[C@H](OC)CN4c4nc(N)nc(C)c4C#N)n(-c4ccccc4)c(=O)c23)cn1` [Example 12, 2-Amino-4-((2S,4S)-4-methoxy-2-(5-(2-methoxypyrimidin-5-yl)-4-oxo-3-phenyl-3,4-dihydroquinazolin-2-yl)pyrrolidin-1-yl)-6-methylpyrimidine-5-carbonitrile]: the IC50 is 28 nM.

With `Cn1cc(-c2c(F)ccc3nc([C@@H]4CCCN4c4ncnc(N)c4C#N)n(-c4ccccc4)c(=O)c23)cn1` [Example 5, (S)-4-Amino-6-(2-(6-fluoro-5-(1-methyl-1H-pyrazol-4-yl)-4-oxo-3-phenyl-3,4-dihydroquinazolin-2-yl)pyrrolidin-1-yl)pyrimidine-5-carbonitrile], the IC50 was 7 nM.

Regarding `COc1ccc(-c2cccc3nc([C@@H]4C[C@H](O)CN4c4nc(N)nc(C)c4C#N)n(-c4ccccc4)c(=O)c23)cn1` [Example 27, 2-Amino-4-((2S,4S)-4-hydroxy-2-(5-(6-methoxypyridin-3-yl)-4-oxo-3-phenyl-3,4-dihydroquinazolin-2-yl)pyrrolidin-1-yl)-6-methylpyrimidine-5-carbonitrile], the IC50 amounted to 6 nM.

On to `Cc1nc(N)nc(N2C[C@@H](F)C[C@H]2c2nc3cccc(-c4cnn(C)c4)c3c(=O)n2-c2ccccc2)c1C#N` [Example 30, 2-Amino-4-((2S,4S)-4-fluoro-2-(5-(1-methyl-1H-pyrazol-4-yl)-4-oxo-3-phenyl-3,4-dihydroquinazolin-2-yl)pyrrolidin-1-yl)-6-methylpyrimidine-5-carbonitrile], for which the IC50 is less than 10 nM.

On to `Cn1cc(-c2c(F)ccc3nc([C@@H]4C[C@H](O)CN4c4ncnc(N)c4C#N)n(-c4ccccc4)c(=O)c23)cn1` [Example 8, 4-Amino-6-((2S,4S)-2-(6-fluoro-5-(1-methyl-1H-pyrazol-4-yl)-4-oxo-3-phenyl-3,4-dihydroquinazolin-2-yl)-4-hydroxypyrrolidin-1-yl) pyrimidine-5-carbonitrile], for which the IC50 was 6 nM.

As to `Cc1ccccc1-n1c([C@@H]2CCCN2c2ncnc(N)c2C#N)nc2cccc(-c3cnn(C)c3)c2c1=O` [Example 14, (S)-4-Amino-6-(2-(5-(1-methyl-1H-pyrazol-4-yl)-4-oxo-3-(otolyl)-3,4-dihydroquinazolin-2-yl)pyrrolidin-1-yl)pyrimidine-5-carbonitrile], the IC50 came out at 8 nM.

On to `CO[C@H]1C[C@@H](c2nc3cccc(-c4cnn(C)c4)c3c(=O)n2-c2ccccc2)N(c2nc(N)nc(C)c2C#N)C1` [Example 10, 2-Amino-4-((2S,4S)-4-methoxy-2-(5-(1-methyl-1H-pyrazol-4-yl)-4-oxo-3-phenyl-3,4-dihydroquinazolin-2-yl)pyrrolidin-1-yl)-6-methylpyrimidine-5-carbonitrile], for which the IC50 was 60 nM.
